Measured values as given in patent publication US20150315202A1, “CHLORIN DERIVATIVE USEFUL IN PHOTODYNAMIC THERAPY AND DIAGNOSIS” (RMW CHO GROUP LIMITED, priority 2012, published 2015).
“Also recorded” adds a separate entry of the source.

Key:
Design in all cases: species or system human
lung cancer = test: In vivo studies Example 6: patient, oral chlorin e4 sodium plus laser and LED light; conditions: immediately after the last of three courses
Description: A patient with lung cancer was treated successfully. The treatment consisted of three courses. For each course, five doses of 62.5-187.5 mg chlorin e4 sodium were administered orally over the course of eight days. 24-48 hours after each oral dose of chlorin e4 sodium, the patient was treated with laser and LED light having a wavelength of 660 nm and 760 nm.

[1] = tested on: invasive ductile breast cancer and lymph node metastases; test: In vivo studies Example 1: patient, oral chlorin e4 sodium plus laser and LED light
Description: A patient with invasive ductile breast cancer and lymph node metastases in the right arm pit, was treated successfully. Prior to treatment a large cancer mass in the right breast was observed and a small cancer mass in the right arm pit. The treatment consisted of three courses. For each course, five doses of 62.5-187.5 mg chlorin e4 sodium were administered orally over the course of eight days. 24-48 hours after each oral dose of chlorin e4 sodium, the patient was treated with laser and LED light having a wavelength of 660 nm and 760 nm.
Subsequently the patient was treated with two further courses. Again, for each course, five doses of 62.5-187.5 mg chlorin e4 sodium were administered orally over the course of eight days. 24-48 hours after each oral dose of chlorin e4 sodium, the patient was treated with laser and LED light having a wavelength of 660 nm and 760 nm. Additionally an interstitial light treatment using a fine needle was performed on the breast with an optical fibre laser having a wavelength of 660 nm and 760 nm.

[2] = tested on: advanced pancreatic cancer with metastases in the liver; test: In vivo studies Example 7: patient, oral chlorin e4 sodium plus laser and LED light
Description: A patient with advanced pancreatic cancer with metastases in the liver, was treated successfully. Prior to treatment the patient was in poor health generally and suffering from extreme weight loss, pain and other typical symptoms of advanced pancreatic cancer. The treatment consisted of three courses. For each course, five doses of 62.5-187.5 mg chlorin e4 sodium were administered orally over the course of eight days. About 24 hours after each oral dose of chlorin e4 sodium, the patient was treated with laser and LED light having a wavelength of 660 nm and 760 nm.

C=Cc1c(C)c2cc3nc(c(C)c4[nH]c(cc5nc(cc1[nH]2)C(C)=C5CC)c(C)c4C(=O)O)[C@@H](CCC(=O)O)[C@@H]3C [chlorin e4 sodium]
CT scan finding (lung cancer): complete recovery from lung cancer | Response in the breast and lymph nodes (PET/CT) ([1]; after the fifth and final treatment course): complete response | Reduction in size of large cancer mass in the breast (doppler ultrasound) ([1]; after the fourth treatment course): about 25% | Size of large cancer mass in the breast (doppler ultrasound) ([1]; after three courses): had not reduced in size | Vascularity of large cancer mass in the breast (doppler ultrasound) ([1]; after three courses): almost no vascularity | Vascularity of smaller lymph node cancer mass (doppler ultrasound) ([1]; after three courses): almost no vascularity | Size of smaller lymph node cancer mass ([1]; after three courses, reduced from 1.9 cm): 1 cm | Reactions at the breast tumour site ([1]; inflammatory response after each course, burning sensation towards the end of the second course): inflammatory response; also recorded: burning sensation | Patient status ([1]; two years and three months after starting, five months after completion of treatment): alive and well | Response in the pancreatic area (PET/CT) ([2]; before and after three courses): improvements and a good treatment response | Pain ([2]; three courses): suffered less pain | Photosensitive reaction ([2]; three courses): no photosensitive reaction
